From EP0361645B1, “Organic hydrazine derivatives for pharmaceutical use” (ROHM AND HAAS COMPANY, priority 1988, dated 1990)

How the values were obtained:
[1] = system: intact L5D0 hornworms; experiment: Premature head capsule apolysis in intact L5D0 hornworms, injected; assay type: in vivo, M. sexta; details: for ED50: Manduca sexta, L5D0 larvae, read-out: 50% effective dose
Experimental: (§1) L4D1 means fourth instar, first day after molting. L4 animals 36 hours after ecdysis were ligated, decapitated and next day injected with varying doses of compound in 1 - 2 ul DMSO. They were scored as follows: 0 = normal L4 abdomens with no L5 crochets or spiracle apolysis; 1 = exposed dorsal vessel (response to moderate levels of molting hormone in the presence of low JH levels); 2 = L5 crochets formed but no spiracle apolysis; 3 = L5 crochets formed and mild spiracle apolysis; 4 = strong molting response, both L5 crochets and spiracle cuticle synthesized. These methods are an adaptation of the method of J. W. Truman, L. M. Riddiford, L. Safranek, 39 Dev. Biol 247 (1974). Injection and scoring of L5D3 abdomens (weighing 6.5 - 7.5 g) are also adaptations of previous methods in H. F. Nijhout, 22 J. Insect Physiol. 453 (1976). Mature feeding stage fifth instar animals weighing 8.5 - 9.5 g were ligated and decapitated, and immediately injected with Example No. 3 in 2 - 5 ul DMSO. Animals were held over moistened filter paper at 25 ° C and were scored after three days. Scoring was as follows: 0 = normal undeveloped blue-green L5D3 abdomen; 1 = light dorsal vessel exposure; 2 = dorsal vessel well-exposed with mild cuticular blanching, abdominal contraction; 3 = complete prepupal cuticle formation with strong abdominal contraction and strong cuticular blanching. For both L4 and L5 abdomens, 50% effective doses were determined by plotting the mean score for all individuals vs. dose, then determining the dose which gives a score of 2.0 and 1.5 respectively. Intact L5D0 hornworms were either allowed to feed on treated commercial black cutworm diet or injected into a proleg and scored after 48 hours. The 50% effective dose was calculated by plotting percentage of the population bearing a prematurely apolysed head capsule vs. dose. For all experiments in this table at least 5 different doses with 10 animals per dose were used.
The dosage differences between the two compounds was even more dramatic in bioassays on intact (unligated) L5D0 hornworms. […]

[2] = system: intact L5D0 hornworms; experiment: Premature head capsule apolysis in intact L5D0 hornworms, fed treated diet; assay type: in vivo, M. sexta; details: for ED50: L5D0 larvae, oral, read-out: 50% effective dose
Experimental: Lepidoptera display the onset of a larval molt by slippage of the head capsule down over the mandibles during formation of an underlying pharate head capsule; this morphological marker accompanies epidermal apolysis which ordinarily occurs at or near peak molting hormone titers. Example No. 3 causes a rapid, premature apolysis in newly ecdysed fifth instar day 0 (L5DO) M. sexta larvae. Clear signs of head capsule apolysis are evident 24 hours after the initiation of feeding.
as §1
The dosage differences between the two compounds was even more dramatic in bioassays on intact (unligated) L5D0 hornworms. If the compounds are injected, Example No. 3 was 67-fold as effective as 20-hydroxyecdysone, while if administered orally, it was over 670-fold as potent.
Hemolymph concentrations of 14C-Example No. 3 were measured by feeding L5D0 hornworm larvae artificial diet containing the labelled compound. At specified intervals thereafter measured volumes of hemolymph were collected, extracted and analyzed by thin layer chromatography and high performance liquid chromatography. […] Blood levels then declined rapidly, but remained at a residual level of about 3 uM for at least 36 hours thereafter.

Row | Structure (SMILES) | ED50 [1] | ED50 ([2]; Manduca sexta) | head capsule slippage ([2]; feeding up to 2000 ppm, L5D0 hornworm larvae) | fold as effective as 20-hydroxyecdysone ([1]; intact L5D0 hornworms) | ED95 ([2]; Manduca sexta, po, L5D0 hornworm larvae, in artificial diet, read-out: 95% effective dose for premature molting) | fold as potent as 20-hydroxyecdysone ([2]; intact L5D0 hornworms, administered orally) | time to clear signs of head capsule apolysis ([2]; newly ecdysed L5D0 larvae, after the initiation of feeding)
1 | CC(C)(O)CC[C@@H](O)[C@](C)(O)[C@H]1CC[C@@]2(O)C3=CC(=O)[C@@H]4C[C@@H](O)[C@@H](O)C[C@]4(C)[C@H]3CC[C@]12C [20-hydroxyecdysone, reference compound] | 181 mg/kg | > 2000 mg/kg | failed to elicit head capsule slippage |  |  |  | 
2 | CC(C)(C)N(NC(=O)c1ccccc1)C(=O)c1ccccc1 [Example No. 3, N'-t-butyl-N,N'-dibenzoylhydrazine] | 3.4 mg/kg | 3 mg/kg |  | 67 fold | ~10 mg/kg | over 670 fold | 24 h
